Assay results taken from patent publication US8222404B2, “[1,2,4]Thiadiazin-3-yl acetic acid compound and methods of making the acetic acid compound” (Anadys Pharmaceuticals, Inc., priority 2008, dated 2012).

What follows are compounds tested on HCV Huh-luc/neo-ET replicon cells (assay: Luciferase-Based HCV Replicon Assay (EC50 (1b))). Settings: Hepatitis C virus, 72 hours exposure, luciferase activity.
Assay type: cell-based
Experimental: Luciferase-Based HCV Replicon Assay Protocol (EC50 (1b))
The cell culture component of the assay was performed essentially as described by Bartenschlager et al., Hepatology 2002, 35, 694-703, wherein exponentially growing HCV Huh-luc/neo-ET replicon cells were seeded at 6×10^3 cells/well in 96 well assay plate. 24 hours later the cells were treated with various concentrations of compound in triplicate. After 72 hours exposure to the compound, the luciferase activity in the wells was determined using Bright-Glo reagent (Promega, Madison, Wis.) with a luminometer (Wallac 1420 Multilabel HTS Counter Victor 2). The background control was replicon cells treated with 100 nM BILN-2061, an inhibitor of the HCV protease. % Inhibition was determined for each compound concentration in relation to the negative (no compound) control to calculate the EC50 (1b).
In the case of `CC(C)CCC1(C)CN(C2CC2)C(=O)C(C2=NS(=O)(=O)c3c(CNS(C)(=O)=O)csc3N2)=C1O` (racemic) [Example 19, rac-N-{3-[1-Cyclopropyl-4-hydroxy-5-methyl-5-(3-methyl-butyl)-2-oxo-1,2,5,6-tetrahydro-pyridin-3-yl]-1,1-dioxo-1,4-dihydro-1λ^6-thieno[2,3-e][1,2,4]thiadiazin-7-ylmethyl}-methanesulfonamide], the EC50 is reported as 100 to 1000 nM.
In the case of `CS(=O)(=O)NCc1csc2c1S(=O)(=O)N=C(C1=C(O)[C@@H]3[C@H]4CC[C@H](C4)[C@@H]3N(Cc3ccc(F)c(Cl)c3)C1=O)N2` [Example 37, N-{3-[(1R,2S,7R,8S)-3-(3-Chloro-4-fluoro-benzyl)-6-hydroxy-4-oxo-3-aza-tricyclo[6.2.1.0^2,7]undec-5-en-5-yl]-1,1-dioxo-1,4-dihydro-1λ^6-thieno[2,3-e][1,2,4]thiadiazin-7-ylmethyl}-methanesulfonamide], the EC50 is reported as 5 to 20 nM.
For `O=C1C(C2=NS(=O)(=O)c3c(CNS(=O)(=O)C4CC4)csc3N2)=C(O)[C@@H]2[C@H]3CC[C@H](C3)[C@@H]2N1Cc1ccc(F)cc1` [Example 33, Cyclopropanesulfonic acid {3-[(1R,2S,7R,8S)-3-(4-fluoro-benzyl)-6-hydroxy-4-oxo-3-aza-tricyclo[6.2.1.0^2,7]undec-5-en-5-yl]-1,1-dioxo-1,4-dihydro-1λ^6-thieno[2,3-e][1,2,4]thiadiazin-7-ylmethyl}-amide], the EC50 was 5 to 20 nM.
`CS(=O)(=O)NCc1csc2c1S(=O)(=O)N=C(C1=C(O)C3C4C=CC(C4)C3N(Cc3ccccc3)C1=O)N2` (racemic) [Example 46, (rac-di-exo)-N-[3-(3-Benzyl-6-hydroxy-4-oxo-3-aza-tricyclo[6.2.1.0^2,7]undeca-5,9-dien-5-yl)-1,1-dioxo-1,4-dihydro-1λ^6-thieno[2,3-e][1,2,4]thiadiazin-7-ylmethyl]-methanesulfonamide] gave an EC50 of at most 5 nM.
`CS(=O)(=O)NCc1csc2c1S(=O)(=O)N=C(C1=C(O)C3C4CCC(C5CC54)C3N(Cc3ccc(F)cc3)C1=O)N2` (racemic) [Example 22, (rac-di-endo)-N-{3-[3-(4-Fluoro-benzyl)-6-hydroxy-4-oxo-3-aza-tetracyclo[6.3.2.0^2,7.0^9,11]tridec-5-en-5-yl]-1,1-dioxo-1,4-dihydro-1λ^6-thieno[2,3-e][1,2,4]thiadiazin-7-ylmethyl}-methanesulfonamide] was tested, and the EC50 was at most 5 nM.
With `CC(C)CC1CN(Cc2ccc(F)cc2)C(=O)C(C2=NS(=O)(=O)c3c(CNS(C)(=O)=O)csc3N2)=C1O` (racemic) [Example 17, rac-N-{3-[1-(4-Fluoro-benzyl)-4-hydroxy-5-isobutyl-2-oxo-1,2,5,6-tetrahydro-pyridin-3-yl]-1,1-dioxo-1,4-dihydro-1λ^6-thieno[2,3-e][1,2,4]thiadiazin-7-ylmethyl}-methanesulfonamide] the EC50 was 100 to 1000 nM.
Work on `COc1cc(CN2C(=O)C(C3=NS(=O)(=O)c4c(CNS(C)(=O)=O)csc4N3)=C(O)[C@@H]3C4CCC(CC4)[C@@H]32)ccc1F` [Example 36, N-{3-[(2S,7R)-3-(4-Fluoro-3-methoxy-benzyl)-6-hydroxy-4-oxo-3-aza-tricyclo[6.2.2.0^2,7]dodec-5-en-5-yl]-1,1-dioxo-1,4-dihydro-1λ^6-thieno[2,3-e][1,2,4]thiadiazin-7-ylmethyl}-methanesulfonamide] yielded an EC50 of at most 5 nM.
Work on `CS(=O)(=O)NCc1csc2c1S(=O)(=O)N=C(C1=C(O)C3CCCCC3N(Cc3ccc(F)c(Cl)c3)C1=O)N2` (racemic) [Example 119, (rac-cis)-N-{3-[1-(3-Chloro-4-fluoro-benzyl)-4-hydroxy-2-oxo-1,2,4a,5,6,7,8,8a-octahydro-quinolin-3-yl]-1,1-dioxo-1,4-dihydro-1λ^6-thieno[2,3-e][1,2,4]thiadiazin-7-ylmethyl}-methanesulfonamide] yielded an EC50 of 100 to 1000 nM.
`CS(=O)(=O)NCc1csc2c1S(=O)(=O)N=C(C1=C(O)[C@@H]3[C@H]4CC[C@H](C4)[C@@H]3N(Cc3ccccc3)C1=O)N2` [Example 50, N-[3-((1R,2S,7R,8S)-3-Benzyl-6-hydroxy-4-oxo-3-aza-tricyclo[6.2.1.0^2,7]undec-5-en-5-yl)-1,1-dioxo-1,4-dihydro-1λ^6-thieno[2,3-e][1,2,4]thiadiazin-7-ylmethyl]-methanesulfonamide] was tested, and the EC50 was at most 5 nM.
For `COc1ccc(CN2C(=O)C(C3=NS(=O)(=O)c4c(CNS(C)(=O)=O)csc4N3)=C(O)[C@@H]3[C@@H]4CC[C@@H](C4)[C@@H]32)c(OC)c1` [Example 73, N-{3-[(1S,2S,7R,8R)-3-(2,4-Dimethoxy-benzyl)-6-hydroxy-4-oxo-3-aza-tricyclo[6.2.1.0^2,7]undec-5-en-5-yl]-1,1-dioxo-1,4-dihydro-1λ^6-thieno[2,3-e][1,2,4]thiadiazin-7-ylmethyl}-methanesulfonamide], the EC50 was over 1000 nM.
Work on `CC(C)CCN1C(=O)C(C2=NS(=O)(=O)c3c(CNS(C)(=O)=O)csc3N2)=C(O)C2CCCCCC21` (racemic) [Example 138, (rac-cis)-N-{3-[4-Hydroxy-1-(3-methyl-butyl)-2-oxo-2,4a,5,6,7,8,9,9a-octahydro-1H-cyclohepta[b]pyridin-3-yl]-1,1-dioxo-1,4-dihydro-1λ^6-thieno[2,3-e][1,2,4]thiadiazin-7-ylmethyl}-methanesulfonamide] yielded an EC50 of 20 to 100 nM.
Compound `CC(C)C1CN(Cc2ccc(F)cc2)C(=O)C(C2=NS(=O)(=O)c3c(CNS(C)(=O)=O)csc3N2)=C1O` (racemic) [Example 13, rac-N-{3-[1-(4-Fluoro-benzyl)-4-hydroxy-5-isopropyl-2-oxo-1,2,5,6-tetrahydro-pyridin-3-yl]-1,1-dioxo-1,4-dihydro-1λ^6-thieno[2,3-e][1,2,4]thiadiazin-7-ylmethyl}-methanesulfonamide] has an EC50 of 100 to 1000 nM.
`CC(C)C1CC(O)=C(C2=NS(=O)(=O)c3c(CNS(C)(=O)=O)csc3N2)C(=O)N1Cc1ccc(F)cc1` (racemic) [Example 8, rac-N-{3-[1-(4-Fluoro-benzyl)-4-hydroxy-6-isopropyl-2-oxo-1,2,5,6-tetrahydro-pyridin-3-yl]-1,1-dioxo-1,4-dihydro-1λ^6-thieno[2,3-e][1,2,4]thiadiazin-7-ylmethyl}-methanesulfonamide] showed an EC50 of 20 to 100 nM.
Work on `CS(=O)(=O)NCc1csc2c1S(=O)(=O)N=C(C1=C(O)C3C4CCC(O4)C3NC1=O)N2` (racemic) [Example 83, (rac-di-exo)-N-[3-(6-Hydroxy-4-oxo-11-oxa-3-aza-tricyclo[6.2.1.0^2,7]undec-5-en-5-yl)-1,1-dioxo-1,4-dihydro-1λ^6-thieno[2,3-e][1,2,4]thiadiazin-7-ylmethyl]-methanesulfonamide] yielded an EC50 of over 1000 nM.
`CCCC1CC(O)=C(C2=NS(=O)(=O)c3c(CNS(C)(=O)=O)csc3N2)C(=O)N1Cc1ccc(F)cc1` (racemic) [Example 5, rac-N-{3-[1-(4-Fluoro-benzyl)-4-hydroxy-2-oxo-6-propyl-1,2,5,6-tetrahydro-pyridin-3-yl]-1,1-dioxo-1,4-dihydro-1λ^6-thieno[2,3-e][1,2,4]thiadiazin-7-ylmethyl}-methanesulfonamide] was tested, and the EC50 was 100 to 1000 nM.
`CS(=O)(=O)NCc1csc2c1S(=O)(=O)N=C(C1=C(O)C3CCCCCC3N(Cc3ccc(F)c(F)c3)C1=O)N2` (racemic) [Example 137, (rac-cis)-N-{3-[1-(3,4-Difluoro-benzyl)-4-hydroxy-2-oxo-2,4a,5,6,7,8,9,9a-octahydro-1H-cyclohepta[b]pyridin-3-yl]-1,1-dioxo-1,4-dihydro-1λ^6-thieno[2,3-e][1,2,4]thiadiazin-7-ylmethyl}-methanesulfonamide] showed an EC50 of 100 to 1000 nM.
Compound `Cc1cc(CN2C(=O)C(C3=NS(=O)(=O)c4c(CNS(C)(=O)=O)csc4N3)=C(O)[C@@H]3CCC[C@@H]32)ccc1F` [Example 126, (4aR,7aS)-N-{3-[1-(4-Fluoro-3-methyl-benzyl)-4-hydroxy-2-oxo-2,4a,5,6,7,7a-hexahydro-1H-[1]pyrindin-3-yl]-1,1-dioxo-1,4-dihydro-1λ^6-thieno[2,3-e][1,2,4]thiadiazin-7-ylmethyl}-methanesulfonamide] has an EC50 of 20 to 100 nM.
Work on `COc1cc(CN2C(=O)C(C3=NS(=O)(=O)c4c(CNS(C)(=O)=O)csc4N3)=C(O)[C@@H]3[C@@H]4CC[C@@H](C4)[C@@H]32)ccc1F` [Example 43, N-{3-[(1S,2S,7R,8R)-3-(4-Fluoro-3-methoxy-benzyl)-6-hydroxy-4-oxo-3-aza-tricyclo[6.2.1.0^2,7]undec-5-en-5-yl]-1,1-dioxo-1,4-dihydro-1λ^6-thieno[2,3-e][1,2,4]thiadiazin-7-ylmethyl}-methanesulfonamide] yielded an EC50 of 20 to 100 nM.
In the case of `CC(C)(C)CCN1C(=O)C(C2=NS(=O)(=O)c3c(CNS(C)(=O)=O)csc3N2)=C(O)C2CCCCC21` (racemic) [Example 133, (rac-cis)-N-{3-[1-(3,3-Dimethyl-butyl)-4-hydroxy-2-oxo-1,2,4a,5,6,7,8,8a-octahydro-quinolin-3-yl]-1,1-dioxo-1,4-dihydro-1λ^6-thieno[2,3-e][1,2,4]thiadiazin-7-ylmethyl}-methanesulfonamide], the EC50 is reported as 20 to 100 nM.
`CC(C)CCN1C(=O)C(C2=NS(=O)(=O)c3c(CNS(C)(=O)=O)csc3N2)=C(O)[C@@H]2CCC[C@@H]21` [Example 128, (4aR,7aS)-N-{3-[4-Hydroxy-1-(3-methyl-butyl)-2-oxo-2,4a,5,6,7,7a-hexahydro-1H-[1]pyrindin-3-yl]-1,1-dioxo-1,4-dihydro-1λ^6-thieno[2,3-e][1,2,4]thiadiazin-7-ylmethyl}-methanesulfonamide] gave an EC50 of 20 to 100 nM.
Compound `CS(=O)(=O)NCc1csc2c1S(=O)(=O)N=C(C1=C(O)[C@@H]3CCC[C@@H]3N(Cc3ccc(F)c(Cl)c3)C1=O)N2` [Example 113, (4aR,7aS)-N-{3-[1-(3-Chloro-4-fluoro-benzyl)-4-hydroxy-2-oxo-2,4a,5,6,7,7a-hexahydro-1H-[1]pyrindin-3-yl]-1,1-dioxo-1,4-dihydro-1λ^6-thieno[2,3-e][1,2,4]thiadiazin-7-ylmethyl}-methanesulfonamide] has an EC50 of 20 to 100 nM.
